From ChEMBL document CHEMBL3817771, “Structure-Based Design of Peptidic Inhibitors of the Interaction between CC Chemokine Ligand 5 (CCL5) and Human Neutrophil Peptides 1 (HNP1)” (J Med Chem, 2016)
Activity calls are given as the source filed them. No cut-off for these calls is given here. Peptide text beside a SMILES is read from it.

Biological target: T1, C-C motif chemokine 5/Neutrophil defensin 1 (Defensin, alpha 1) (Homo sapiens) (UniProt P13501+P59665)
Assay: Inhibition of CCL5 (unknown origin)-HNP1 (unknown origin) interaction in HUVEC assessed as CCL5-HNP1-driven human monocyte adhesion at 100 ug/ml pre-incubated for 5 mins before human monocyte addition
Format: cell-based
Set-up: scale not given: the % may be the effect or the level left

T1 sequence (P13501 whole entry, looked up): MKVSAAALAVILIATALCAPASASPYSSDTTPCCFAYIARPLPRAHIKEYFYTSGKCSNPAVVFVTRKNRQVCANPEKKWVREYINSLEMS
T1 sequence (P59665 whole entry, looked up): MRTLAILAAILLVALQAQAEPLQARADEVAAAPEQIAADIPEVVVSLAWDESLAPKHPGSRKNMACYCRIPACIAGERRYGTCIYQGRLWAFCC

Molecule	Activity [%]
H-RRYGTSKYQ-OH	11.8

Biological target: T1, C-C motif chemokine 5/Neutrophil defensin 1 (Defensin, alpha 1) (Homo sapiens)
Assay: Inhibition of CCL5 (unknown origin)-HNP1 (unknown origin) interaction in HUVEC assessed as reduction in CCL5-HNP1-driven human monocyte adhesion at 100 ug/ml pre-incubated for 5 mins before human monocyte addition
Format: cell-based

Molecule	inhibition
H-YQGRLWAFSS-OH	Active
CC(C)C[C@@H]1NC(=O)[C@H](CCCNC(=N)N)NC(=O)CNC(=O)[C@H](CCC(N)=O)NC(=O)[C@H](Cc2ccc(O)cc2)NC(=O)[C@H](CCCCN)NC(=O)[C@H](C)NC(=O)[C@H]([C@@H](C)O)NC(=O)CNC(=O)[C@H](Cc2ccc(O)cc2)NC(=O)[C@H](CCCNC(=N)N)NC(=O)[C@H](CCCNC(=N)N)NC(=O)[C@@H](N)CSSC[C@@H](C(N)=O)NC(=O)[C@H](C)NC(=O)[C@H](Cc2ccccc2)NC(=O)[C@H](C)NC(=O)[C@H](Cc2c[nH]c3ccccc23)NC1=O (HELM PEPTIDE1{C.R.R.Y.G.T.A.K.Y.Q.G.R.L.W.A.F.A.C.[am]}$PEPTIDE1,PEPTIDE1,1:R3-18:R3$$$V2.0)	Active
H-RRYGTSIYQ-OH	Active
H-RRYGTSKYQ-OH	Active
H-TYQRRSGKY-OH	inactive
H-RRYGTSRYQ-OH	Active
